Assay results reported in US8962608B2, “Cycloalkylnitrile pyrazole carboxamides as janus kinase inhibitors” (Merck Sharp & Dohme Corp., priority 2011, dated 2015).

Key:
[1] = molecular target: JAK1 (recombinant purified GST-tagged catalytic domain) (Homo sapiens (Human), UniProt P23458); assay: biochemical;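 further: biochemical assay with HTRF read-out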
[2] = molecular target: JAK2 (recombinant purified GST-tagged catalytic domain) (Homo sapiens (Human), UniProt O60674); assay: biochemical;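 further: biochemical JAK kinase assay with HTRF detection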
JAK2 (recombinant purified GST-tagged catalytic domain), sequence (O60674 849-1124): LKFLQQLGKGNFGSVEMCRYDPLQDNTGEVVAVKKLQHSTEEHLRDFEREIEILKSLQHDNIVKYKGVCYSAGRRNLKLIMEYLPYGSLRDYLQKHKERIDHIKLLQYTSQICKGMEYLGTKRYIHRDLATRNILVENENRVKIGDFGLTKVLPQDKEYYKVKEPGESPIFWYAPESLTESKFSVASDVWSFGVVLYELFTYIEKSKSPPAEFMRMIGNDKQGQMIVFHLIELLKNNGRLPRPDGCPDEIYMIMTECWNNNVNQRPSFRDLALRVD

JAK1 (recombinant purified GST-tagged catalytic domain), sequence (P23458 875-1153): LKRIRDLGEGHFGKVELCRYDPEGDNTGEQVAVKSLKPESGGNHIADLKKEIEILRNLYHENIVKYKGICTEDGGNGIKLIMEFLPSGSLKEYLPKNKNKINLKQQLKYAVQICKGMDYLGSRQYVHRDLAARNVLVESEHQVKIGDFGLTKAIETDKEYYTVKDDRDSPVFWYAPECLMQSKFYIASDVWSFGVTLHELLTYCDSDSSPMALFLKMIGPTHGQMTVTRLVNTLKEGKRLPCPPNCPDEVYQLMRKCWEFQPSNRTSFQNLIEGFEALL

SMILES | IC50 [1] [nM] | IC50 [2] [nM]
N#C[C@H]1C[C@@H](C(=O)NCC(F)(F)F)CC[C@@H]1n1cc(C(N)=O)c(Nc2ccc(Cl)cc2)n1 (single isomer, unassigned) [Example 35-22, 3-[(4-chlorophenyl)amino]-1-{(1S,2S,4S or 1R,2R,4R)-2-cyano-4-[(2,2,2-trifluoroethyl)carbamoyl]cyclohexyl}-1H-pyrazole-4-carboxamide] | 7 | 218
N#C[C@@H]1CCCC[C@H]1n1cc(C(N)=O)c(Nc2ccc(C(F)F)nc2)n1 (single isomer, unassigned) [Example 17-55, 1-[(1R,2R or 1S,2S)-2-cyanocyclohexyl]-3-{[6-(difluoromethyl)pyridin-3-yl]amino}-1H-pyrazole-4-carboxamide] | 41 | 255
C[C@H](N[C@@H]1CC[C@H](n2cc(C(N)=O)c(Nc3ccc(OC(F)(F)F)cc3)n2)[C@@H](C#N)C1)C1CC1 (single isomer, unassigned) [Example 28-55, 1-[(1S,2S,4R or 1R,2R,4S)-2-cyano-4-{[(1S)-1-cyclopropylethyl]amino}cyclo-hexyl]-3-{[4-(trifluoromethoxy)phenyl]amino}-1H-pyrazole-4-carboxamide] | 4 | 200
CO/N=C(\C)c1ccc(Nc2nn([C@H]3CCCC[C@@H]3C#N)cc2C(N)=O)cc1 (single isomer, unassigned) [Example 40, 1-[(1S,2S or 1R,2R)-2-Cyanocyclohexyl]-3-{[4-(N-methoxyethanimidoyl)phenyl]amino}-1H-pyrazole-4-carboxamide] | 0.35 | 2
N#C[C@H]1C[C@@H](O)CC[C@@H]1n1cc(C(N)=O)c(Nc2ccc(Cl)c(Cl)c2)n1 (single isomer, unassigned) [Example 33-20, 1-[(1S,2S,4S or 1R,2R,4R)-2-cyano-4-hydroxycyclohexyl]-3-[(3,4-dichlorophenyl)amino]-1H-pyrazole-4-carboxamide] | 2 | 20
CC(C)(O)[C@H]1CC[C@H](n2cc(C(N)=O)c(Nc3ccc(Cl)cc3)n2)[C@@H](C#N)C1 (single isomer, unassigned) [Example 36-1, 3-(4-chlorophenylamino)-1-((1S,2S,4S or 1R,2R,4R)-2-cyano-4-(2-hydroxypropan-2-yl)cyclohexyl)-1H-pyrazole-4-carboxamide] | 0.65 | 4
CC1(N[C@H]2CCC(n3cc(C(N)=O)c(Nc4ccccc4)n3)[C@@H](C#N)C2)COC1 (single isomer, unassigned) [Example 28-230, 1-{(1S,2S,4S or 1R,2R,4R)-2-cyano-4-[(3-methyloxetan-3-yl)amino]cyclohexyl}-3-(phenylamino)-1H-pyrazole-4-carboxamide] | 4 | 24
N#C[C@H]1CCCC[C@@H]1n1cc(C(N)=O)c(Nc2cnc3ccc(F)cc3c2)n1 (single isomer, unassigned) [Example 17-48, 1-[(1S,2S or 1R,2R)-2-cyanocyclohexyl]-3-[(6-fluoroquinolin-3-yl)amino]-1H-pyrazole-4-carboxamide] | 2 | 14
CNC(=O)O[C@H]1CCC(n2cc(C(N)=O)c(Nc3ccc(F)cc3)n2)[C@@H](C#N)C1 (mixture of isomers) [Example 34-9, (1S,3S,4S and 1R,3R,4R)-4-{4-carbamoyl-3-[(4-fluorophenyl)aminol-1H-pyrazol-1-yl}-3-cyanocyclohexyl methylcarbamate] | 3 | 51
N#C[C@H]1C[C@H](NC2(C(F)(F)F)CC2)CC[C@@H]1n1cc(C(N)=O)c(Nc2ccc(Cl)cc2)n1 (single isomer, unassigned) [Example 28-227, 3-[(4-chlorophenyl)amino]-1-[(1S,2S,4R or 1R,2R,4S)-2-cyano-4-{[1-(trifluoro-methyl)cyclopropyl]a-mino}cyclohexyl]-1H-pyrazole-4-carboxamide] | 27 | 186
